# Laboratory results reported in patent US12433903B2 (priority 2021, dated 2025).
# Key:
# [1] = test system: p-cMyc(S62), cMyc, p-AKT(S473), AKT, p-ERK(T202/Y204), ERK in SW620, HCT15, HCT116 cells; experiment: Target engagement by Western blot in colon cancer cell lines; assay type: cell-based; conditions: HCT 116 cells; 10-80 μM, 3 hours; with a dose effect
# Experimental: For Western blot, the compounds were tested at 4 concentrations for 3 hours on 3 colon cancer cell lines. The compounds, concentrations, colon cancer cell line panel, and antibodies panel tested are the following: • CBG: 0 μM, 10 μM, 20 μM, 40 μM, and 80 μM. • Compound 1: 0 μM, 10 μM, 20 μM, 40 μM, and 80 μM. • Compound 2: 0 μM, 10 μM, 20 μM, 40 μM, and 80 μM. • Colon cancer cell line panel: SW620, HCT15, HCT116 • Antibodies panel: p-cMYC(S62), cMyc, p-AKT(S473), AKT, p-ERK(T202/Y204), ERK Methods
# Evaluation of target engagement was performed to determine the expression of specific marker protein expression and underlying signaling pathways with Western blot.
# Western blot. Whole cell extracts were prepared by incubating cell pellets in IP lysis buffer supplemented with protease and phosphatase inhibitors (Roche). Isolated protein was quantified by Pierce BCA Protein assay (ThermoFisher). Equal quantities of protein were separated by 4-15% SDS-PAGE electrophoresis gels and transferred onto nitrocellulose membranes. Membranes was blocked with 5% nonfat milk in Tris-buffered saline-Tween buffer. […]
# rUGT2B7 = molecular target: T1, rUGT2B7 (Homo sapiens, UniProt P16662); experiment: Inhibition of CBG glucuronidation by Compound 1, rUGT2B7; assay type: in vitro ADME
# T1 sequence (P16662 24-529): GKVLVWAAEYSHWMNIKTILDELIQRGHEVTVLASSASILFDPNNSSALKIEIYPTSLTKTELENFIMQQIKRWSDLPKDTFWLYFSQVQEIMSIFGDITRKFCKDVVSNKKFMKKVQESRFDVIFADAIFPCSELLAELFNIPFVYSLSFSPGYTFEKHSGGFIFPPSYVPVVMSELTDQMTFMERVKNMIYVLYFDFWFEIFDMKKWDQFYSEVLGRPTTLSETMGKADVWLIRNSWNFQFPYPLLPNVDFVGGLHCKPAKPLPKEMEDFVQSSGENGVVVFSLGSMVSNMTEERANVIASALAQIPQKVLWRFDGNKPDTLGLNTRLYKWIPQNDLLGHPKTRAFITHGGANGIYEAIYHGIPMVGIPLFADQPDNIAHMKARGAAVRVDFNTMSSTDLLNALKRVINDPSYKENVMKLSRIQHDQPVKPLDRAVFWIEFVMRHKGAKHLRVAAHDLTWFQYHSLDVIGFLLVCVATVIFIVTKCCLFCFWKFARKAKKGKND
# Experimental: The purpose of this experiment was to determine if Compound 1 can inhibit the glucuronidation of CBG, as both are substrates for the two major isoforms responsible for CBG glucuronidation.
# The ability of Compound 1 to inhibit the metabolism of CBG by UGT1A9 and UGT2B7 enzymes was investigated to ascertain the IC50 values for direct inhibition. The incubation conditions (substrate concentration, incubation time and protein concentration) were determined in Part 2 of the protocol such that CBG metabolism remains near initial rate conditions (e.g., 20-30% substrate loss).
# Preliminary experiments were conducted in Part I of the protocol, first to establish the HPLC/MS/MS bioanalytical methods for CBG and CBG glucuronide. […] The second set of preliminary experiments (Part 2), as mentioned, were conducted to optimize the incubation conditions as described above. Incubations (at 37° C.) contained Tris-HCl buffer (100 mM, pH 7.7), MgCl2 (10 mM), EDTA (1 mM, pH 7.4) and UDP-glucuronic acid (UDPGA, 10 mM). CBG was added to each incubation in DMSO such that the final percent of DMSO was 1% v/v, or less. Reactions were terminated by the addition of an equal volume of stop reagent, acetonitrile containing an internal standard. The samples were centrifuged (e.g., 920 RCF for 10 minutes at 10° C.), and the supernatant fractions were analyzed by LC-MS/MS to determine the amount of CBG remaining and formation of one metabolite (CBG glucuronide).
# To examine its ability to act as a direct inhibitor of the above listed enzymes, Compound 1 was be added to recombinant human UGT enzyme together with CBG. Reactions were initiated with UDPGA and were carried out in duplicate. For all assays, reactions were terminated by the addition of acetonitrile with or without 2% v/v formic acid, including the internal standard.
# Authentic metabolite reference standards were used for quantitation of the probe substrate metabolites and as internal standards. Based on the information obtained in the Part 2 experiments, the following table summarizes the experiments performed, assessing the inhibitory effects of Compound 1 was conducted as follows:
# The amounts of CBG present at the end of the incubation periods was determined. For inhibition to have occurred, the amounts of CBG present at the end of the incubation period needed to increase, and the amounts of glucuronide formed needed to decrease.
# [2] = 10 μM CBG + 0.01 μM Compound 1, 5 min
# [3] = 10 μM CBG + 0.03 μM Compound 1, 5 min
# [4] = 10 μM CBG + 0.1 μM Compound 1, 5 min
# [5] = 10 μM CBG + 0.3 μM Compound 1, 5 min
# [6] = 10 μM CBG + 1 μM Compound 1, 5 min
# [7] = 10 μM CBG + 3 μM Compound 1, 5 min
# [8] = 10 μM CBG + 10 μM Compound 1, 5 min
smiles,measurement,setting,value
"CCCCCc1cc(O)c(C/C=C(\C)CCC=C(C)C)c(OC)c1 [Compound 1, (E)-2-(3,7-dimethylocta-2,6-dien-1-yl)-3-methoxy-5-pentylphenol]",pAKT(S473) (Western blot),[1],down-regulated
same,CBG detected (CBG loss),rUGT2B7; [2],1370 pmol
same,"CBG detected, Percent of control",rUGT2B7; [2],103
same,CBG glucuronide formed,rUGT2B7; [2],260000 area ratio
same,"CBG glucuronide formed, Percent of control",rUGT2B7; [2],104
same,CBG detected (CBG loss),rUGT2B7; [3],1460 pmol
same,"CBG detected, Percent of control",rUGT2B7; [3],109
same,"CBG glucuronide formed, Percent of control",rUGT2B7; [3],101
same,CBG detected (CBG loss),rUGT2B7; [4],1410 pmol
same,"CBG detected, Percent of control",rUGT2B7; [4],106
same,"CBG glucuronide formed, Percent of control",rUGT2B7; [4],103
same,CBG detected (CBG loss),rUGT2B7; [5],1450 pmol
same,"CBG detected, Percent of control",rUGT2B7; [5],109
same,"CBG glucuronide formed, Percent of control",rUGT2B7; [5],105
same,CBG detected (CBG loss),rUGT2B7; [6],1460 pmol
same,"CBG detected, Percent of control",rUGT2B7; [6],109
same,"CBG glucuronide formed, Percent of control",rUGT2B7; [6],102
same,CBG detected (CBG loss),rUGT2B7; [7],1440 pmol
same,"CBG detected, Percent of control",rUGT2B7; [7],108
same,"CBG glucuronide formed, Percent of control",rUGT2B7; [7],101
same,CBG detected (CBG loss),rUGT2B7; [8],1470 pmol
same,"CBG detected, Percent of control",rUGT2B7; [8],111
same,"CBG glucuronide formed, Percent of control",rUGT2B7; [8],96.0
same,metabolism of CBG in the presence of Compound 1 (in words),"rUGT2B7; 0.01-10 μM Compound 1, CBG disappearance or glucuronide formation",essentially unchanged
